# In patent publication US6143769A, “Phenylacetic acid benzylamides” (Karl Thomae GmbH, priority 1983, dated 2000):
# How the values were obtained:
# Assay type in all cases: in vivo, human
# [1] = Study 1: plasma concentration, non-stereoselective HPLC
# glucose [2] = assay: Study 2: whole blood glucose, 2 mg AG-EE 388 ZW capsule or tablet, crossover
# Source text: Blood samples were taken at various times.
# glucose [3] = assay: Study 3: whole blood glucose, single fasting test subject, crossover
smiles,measurement,setting,value
"CCOc1cc(CC(=O)NC(CC(C)C)c2ccccc2N2CCCCC2)ccc1C(=O)O (racemic) [AG-EE 388 ZW, 2-ethoxy-4-[N-[1-(2-piperidino-phenyl)-3-methyl-1-butyl]aminocarbonylmethyl]-benzoic acid]",Concentration (mean),"[1]; 2 mg capsule, 0 h",0.0 ng/mL
same,Concentration (mean),"[1]; 2 mg capsule, 10.00 h",0.0 ng/mL
same,Time at which level reaches the detection limit,"[1]; 2 mg capsule, limit 5 ng/ml",5 h
same,concentration at 0.5 h,"[1]; human, plasma, po, 2 mg, 2 mg capsule, 0.50 h",55.8 ng/mL
same,concentration at 0.75 h,"[1]; human, plasma, po, 2 mg, 2 mg capsule, 0.75 h",82.9 ng/mL
same,concentration at 1 h,"[1]; human, plasma, po, 2 mg, 2 mg capsule, 1.00 h",82.8 ng/mL
same,concentration at 1.5 h,"[1]; human, plasma, po, 2 mg, 2 mg capsule, 1.50 h",64.7 ng/mL
same,concentration at 2 h,"[1]; human, plasma, po, 2 mg, 2 mg capsule, 2.00 h",58.3 ng/mL
same,concentration at 3 h,"[1]; human, plasma, po, 2 mg, 2 mg capsule, 3.00 h",29.4 ng/mL
same,concentration at 4 h,"[1]; human, plasma, po, 2 mg, 2 mg capsule, 4.00 h",16.3 ng/mL
same,concentration at 5 h,"[1]; human, plasma, po, 2 mg, 2 mg capsule, 5.00 h",9 ng/mL
same,concentration at 6 h,"[1]; human, plasma, po, 2 mg, 2 mg capsule, 6.00 h",4.2 ng/mL
same,concentration at 8 h,"[1]; human, plasma, po, 2 mg, 2 mg capsule, 8.00 h",1.2 ng/mL
same,Cmax,"[1]; human, plasma, po, 2 mg capsule p.o., read-out: Maximum concentration",83 ± 18 ng/mL
same,Glucose (mean),"glucose [2]; 2 mg capsule, 0 h",5.0 mmol/L
same,Glucose (mean),"glucose [2]; 2 mg capsule, 0.20 h",5.0 mmol/L
same,Glucose (mean),"glucose [2]; 2 mg capsule, 0.33 h",4.9 mmol/L
same,Glucose (mean),"glucose [2]; 2 mg capsule, 0.50 h",4.8 mmol/L
same,Glucose (mean),"glucose [2]; 2 mg capsule, 0.75 h",4.6 mmol/L
same,Glucose (mean),"glucose [2]; 2 mg capsule, 1.00 h",4.4 mmol/L
same,Glucose (mean),"glucose [2]; 2 mg capsule, 1.50 h",3.9 mmol/L
same,Glucose (mean),"glucose [2]; 2 mg capsule, 2.00 h (breakfast)",3.7 mmol/L
same,Glucose (mean),"glucose [2]; 2 mg capsule, 3.00 h",4.4 mmol/L
same,Glucose (mean),"glucose [2]; 2 mg capsule, 4.00 h",4.0 mmol/L
same,Glucose (mean),"glucose [2]; 2 mg capsule, 5.00 h (lunch)",4.2 mmol/L
same,Glucose (mean),"glucose [2]; 2 mg capsule, 6.00 h",4.8 mmol/L
same,Glucose (mean),"glucose [2]; 2 mg capsule, 9.00 h",5.0 mmol/L
same,Glucose (mean),"glucose [2]; 2 mg capsule, 24.00 h",4.9 mmol/L
same,Time at which glucose levels return to original level,glucose [2]; 2 mg p.o.,6 h
same,Glucose (mean),"glucose [2]; 2 mg tablet, 0 h",4.9 mmol/L
same,Glucose (mean),"glucose [2]; 2 mg tablet, 0.20 h",5.0 mmol/L
same,Glucose (mean),"glucose [2]; 2 mg tablet, 0.33 h",4.9 mmol/L
same,Glucose (mean),"glucose [2]; 2 mg tablet, 0.50 h",4.6 mmol/L
same,Glucose (mean),"glucose [2]; 2 mg tablet, 0.75 h",4.4 mmol/L
same,Glucose (mean),"glucose [2]; 2 mg tablet, 1.00 h",4.1 mmol/L
same,Glucose (mean),"glucose [2]; 2 mg tablet, 1.50 h",3.8 mmol/L
same,Glucose (mean),"glucose [2]; 2 mg tablet, 2.00 h (breakfast)",3.8 mmol/L
same,Glucose (mean),"glucose [2]; 2 mg tablet, 3.00 h",4.7 mmol/L
same,Glucose (mean),"glucose [2]; 2 mg tablet, 4.00 h",4.2 mmol/L
same,Glucose (mean),"glucose [2]; 2 mg tablet, 5.00 h (lunch)",4.2 mmol/L
same,Glucose (mean),"glucose [2]; 2 mg tablet, 6.00 h",5.2 mmol/L
same,Glucose (mean),"glucose [2]; 2 mg tablet, 9.00 h",5.0 mmol/L
same,Glucose (mean),"glucose [2]; 2 mg tablet, 24.00 h",4.8 mmol/L
same,Time of maximum blood sugar reduction,glucose [3]; 2 mg,2.0 h
same,"Glucose, deviation against t = 0","glucose [3]; 2 mg capsule, 0 h",0%
same,"Glucose, deviation against t = 0","glucose [3]; 2 mg, 0.50 h",0%
same,"Glucose, deviation against t = 0","glucose [3]; 2 mg, 0.75 h",0%
same,"Glucose, deviation against t = 0","glucose [3]; 2 mg, 1.00 h",-5%
same,"Glucose, deviation against t = 0","glucose [3]; 2 mg, 1.25 h",-12%
same,"Glucose, deviation against t = 0","glucose [3]; 2 mg, 1.50 h",-18%
same,"Glucose, deviation against t = 0","glucose [3]; 2 mg, 1.75 h",-23%
same,"Glucose, deviation against t = 0","glucose [3]; 2 mg, 2.00 h",-29%
same,"Glucose, deviation against t = 0","glucose [3]; 2 mg, 2.50 h",-27%
same,"Glucose, deviation against t = 0","glucose [3]; 2 mg, 3.00 h",-21%
same,"Glucose, deviation against t = 0","glucose [3]; 2 mg, 4.00 h",-17%
same,"Glucose, deviation against t = 0","glucose [3]; 2 mg, 5.00 h",-17%
same,"Glucose, deviation against t = 0","glucose [3]; 2 mg, 6.00 h",-16%
same,Maximum lowering of blood glucose,glucose [3]; 4 mg,-38%
same,Onset of effect,glucose [3]; 4 mg,about 1.0 hour
same,Time of maximum blood sugar reduction,glucose [3]; 4 mg,2.0 h
same,"Glucose, deviation against t = 0","glucose [3]; 4 mg capsule, 0 h",0%
same,"Glucose, deviation against t = 0","glucose [3]; 4 mg, 0.50 h",-3%
same,"Glucose, deviation against t = 0","glucose [3]; 4 mg, 0.75 h",-1%
same,"Glucose, deviation against t = 0","glucose [3]; 4 mg, 1.00 h",-7%
same,"Glucose, deviation against t = 0","glucose [3]; 4 mg, 1.25 h",-15%
same,"Glucose, deviation against t = 0","glucose [3]; 4 mg, 1.50 h",-21%
same,"Glucose, deviation against t = 0","glucose [3]; 4 mg, 1.75 h",-32%
same,"Glucose, deviation against t = 0","glucose [3]; 4 mg, 2.00 h",-38%
same,"Glucose, deviation against t = 0","glucose [3]; 4 mg, 2.50 h",-34%
same,"Glucose, deviation against t = 0","glucose [3]; 4 mg, 3.00 h",-28%
same,"Glucose, deviation against t = 0","glucose [3]; 4 mg, 3.50 h",-24%
same,"Glucose, deviation against t = 0","glucose [3]; 4 mg, 4.00 h",-26%
same,"Glucose, deviation against t = 0","glucose [3]; 4 mg, 5.00 h",-24%
same,"Glucose, deviation against t = 0","glucose [3]; 4 mg, 6.00 h",-23%
same,"Glucose, deviation against t = 0","glucose [3]; 4 mg, 7.00 h",-20%
same,"Glucose, deviation against t = 0","glucose [3]; 4 mg, 8.00 h",-25%
